Assay [1] deals with T1, heparin-induced aggregated tau (aTau), full-length 2N4R human Tau (Homo sapiens, UniProt P10636).
T1 construct: transformed with a full-length 2N4R tau expression plasmid; made in house; host or cells: E. coli BL21
Put plainly: PBB5 competition assay. It is filed as binding. The following applies: 0.12 μM aTau; for IC50: 0.1 μM PBB5, 37° C. 1 hour, PBB5 fluorescence 530/690 nm; for Emax: 0.1 μM PBB5, compound up to 10 μM, read-out: Competition Assay with PBB5: Bmax (%). Here is the method: (§1) (A) Expression and purification of human Tau: 1 mM IPTG (Sangon Biotech, Cat. No A100487) was used to induce production of tau by bacteria (BL21, Invitrogen, Cat. No C600003) transformed with a full-length 2N4R tau expression plasmid. After 3 hours, cell pellet was resuspended in lysis buffer (100 mM PIPES, 1 mM EGTA, 1 mM MgSO4, pH 6.8) and lysed by sonication followed by centrifugation (15,000 rpm, 15 min, 4° C.). The supernatant was then placed in a boiling water bath for 20 min, followed by centrifugation (15,000 rpm, 15 min, 4° C.). Supernatant was loaded onto a Q-Sepharose® Fast Flow column (GE healthcare, Cat. No 17-0510-01), the flow-through fraction was loaded onto an SP-Sepharose® Fast Flow column (GE healthcare, Cat. No 17-0729-01), and tau protein was eluted with elution buffer (100 mM PIPES, 1 M NaCl, 1 mM EGTA, 1 mM MgSO4, 0.2 M NaCl, pH 6.8). Collected fractions of tau-containing eluates were pooled, concentrated and dialyzed against HEPES buffer (25 mM HEPES, 0.1 mM EDTA, 0.5 mM DTT, 100 mM NaCl, pH 7.2) and stored at −80° C. in small aliquots until use. Protein concentration was determined by UV absorption.
(§2) (B) Preparation of heparin-induced aggregated tau (aTau): 2 μM of tau prepared in 30 mM Tris-HCl, pH 7.5 buffer was incubated in tube with 15 μM heparin (Sigma, Cat. No H3149) at 37° C. for 24 hours.
(E) PBBS competition assay: 2 μM of aTau was diluted to 0.12 μM by […] (pH 6.8) and then incubated with 0.1 μM 2-(4-(2-(methylamino)pyridine-5-yl)-1,3-butadiene-1-yl)benzothiazole-6-ol (PBB5) and serially diluted compound (three-fold serial dilution, from 10 to 0.00017 μM) in a 96-well plate (Corning, Cat. No 3573) at 37° C. for 1 hour. Fluorescence intensity (excitation/emission=530/690 nm) of PBB5 was read by microplate spectrometer (EnSpire 2300, PerkinElmer). Percentage of competition was calculated using the following equation: (Max−well of compound alone)/(Max−Min)*100%, where Max=(Tau+PBB5) signals−(buffer+PBB5) signals; and Min=(buffer+PBB5) signals−(buffer+PBB5) signals.
The IC50 value of each compound was calculated with GraphPad Prism software using the “4 Parameter Logistic Model or Sigmoidal Dose-Response Model”:
Y=Bottom+(Top−Bottom)/(1+(IC50/×)^HillSlope)

Assay [2] addresses T2, Tau aggregates in P301L-Tau-FL-GFP HEK293 cells (Homo sapiens, UniProt P10636, P618L).
T2 construct: express full-length human tau T40 (2N4R) carrying the P301L mutation with a GFP tag; expressed in transfected cells
Put plainly: Tau degradation assay (APNmAb005 ELISA-based Tau aggregation assay). The following applies: 1 μM of compound, 24 hours, P301L-Tau-FL-GFP HEK293 cells seeded with rTg4510 brain lysate; read-out: Activity (reduction of tau aggregates). The format is cell-based. The method, then: (A). Cell-based model of Tau inclusion formation: Six month old rTg4510 mouse brain lysates were used as the source of tau seeds, prepared as described in Example 26 above. P301L-Tau-FL-GFP HEK293 cells represent HEK293 cells express full-length human tau T40 (2N4R) carrying the P301L mutation with a GFP tag (P301L-Tau-FL-GFP). 1×10^6 of P301L-Tau-FL-GFP HEK293 cells were cultured on a 6-well plate in culture medium containing DMEM/F-12 (Gibco) supplemented with 10% fetal bovine serum (FBS) (Gibco), 1% Penicillin-Streptomycin (Gibco) and 0.5 mg/ml geneticin (Thermo Fisher Scientific) for 24 hours to reach 70-90% confluency, indicating the cells were ready for transfection. 50 μg of 6-month-old rTg4510 mouse brain lysate was diluted in 400 μL of serum free medium and mixed with 16 μL of lipofectamine 3000 reagent (Thermo Fisher Scientific) diluted in 400 μl of serum free medium. A solution mixture of rTg4510 brain lysate and lipofectamine 3000 was incubated at room temperature for 25 min. The culture media were removed, and then a solution mixture of rTg4510 lysate and lipofectamine 3000 was added to the cells for transfection. The solution mixture was incubated at room temperature for five hours, followed by medium change to 10% fetal bovine serum (FBS). After two-day incubation, Tau aggregates (Tau spots) were induced and images were acquired by ImageXpress Micro Confocal high-content imaging system (Molecular Devices) as described in Example 52 above. Analysis was performed by two customized modules in MetaXpress software (Molecular Devices) for aggregated tau analysis. Output included cell numbers, numbers of tau spots, average intensity of tau spots, and average size of tau spots.
(B). Compound treatment: 100 μL of 3×10^4 cells comprising Tau aggregates, prepared as described above in step (A), were plated on a 96-well plate coated with poly-D-lysine (BD Biosciences) and cultured for 24 hours. Compounds to be tested were dissolved in culture medium containing 0.1% DMSO. Each of test compounds in the concentration of 1, 0.2 and 0.04 μM was added to the cells comprising Tau aggregates and incubated at 37° C. for 24 hours. After that, culture medium was removed, cells were washed with PBS solution and then lysed using 30 μL of lysis buffer (PBS containing 0.3% Triton X-100 and 400 mM NaCl) for one hour at 4° C., and then cell lysate was diluted by 170 μl of PBS containing 400 mM NaCl. Cell lysate was filtrated by a […] filtration plate (Pall) and applied for Tau aggregation assay.
(C). Control cell lysate: control cell lysate was collected from non-seeded cells.
(D). ELISA-based Tau aggregation assay: APNmAb005 ELISA kit for Tau aggregation assay was designed and developed to detect abnormal tau aggregates in buffered solution or cell lysate by using anti-Tau APNmab005 as capture and detection antibody. This antibody is a highly specific antibody bound to human tau aggregates accumulated in mammalian cells. APNmAb005 is recited in PCT Patent Application No. PCT/M2020/057415, filed Aug. 5, 2020, which is incorporated herein by reference.
0.15 μg of APNmAb005 in 100 mM sodium carbonate buffer (pH 9.6) was coated on a high-binding polystyrene 96-well microplate (Greiner Bio-One) at 4° C. overnight. The microplate was washed with PBS followed by treatment with Intercept (PBS) blocking buffer (LI-COR) at room temperature for 2 hours. After that, the microplate was washed with PBS, and then the cell lysate with compound treatment, prepared as described above in step (C), was added into each well of the microplate and incubated at room temperature for 2 hours. The microplate was washed with PBS and then incubated with HRP-conjugated secondary antibody APNmAb005 at room temperature for 3 hours. HRP-conjugated secondary antibody APNmAb005 was prepared using HRP conjugation kit (Abcam,ab102890). The microplate was then washed with PBS and incubated with 100 μL of horseradish peroxidase (HRP) substrate at room temperature. […]
On the technique in general: In an ELISA, binding on a coated surface is turned into a signal by an enzyme label.

Assay [3] addresses T1, heparin-induced aggregated tau (aTau), full-length 2N4R human Tau. Put plainly: In vitro fluorometric aTau binding assay. The following applies: 0.04 μM aTau, serially diluted compound 10 to 0.00017 μM, 37° C. 1 hour, fluorescence. Here is the method:
as §1, §2
(D) In vitro fluorometric aTau binding assays: 2 μM aTau was diluted to 0.04 μM with 30 mM Tris-HCl (pH 6.8), and then incubated with serially diluted compound (three-fold serial dilutions, from 10 to 0.00017 μM) in a 96-well plate (Corning, Cat. No 3573) at 37° C. for 1 hour. Fluorescence intensity (excitation/emission=370/500 nm) of APN-0729 was read by microplate spectrometer (EnSpire 2300, PerkinElmer). Compound Kd values were calculated using the following equation: Y=Bmax* X (Kd+X), where X is the concentration of compound; Y is the fluorescence signal of (compound+aTau)−(compound+DMSO); and Bmax is the maximum signal.

This is an account of results in patent US20220354835A1, “COMPOUNDS FOR DEGRADING TAU PROTEIN AGGREGATES AND USES THEREOF” (Aprinoia Therapeutics Limited, priority 2019, published 2022).

Molecules are shown by their SMILES.

T2 sequence (P10636 1-441 isoform P10636-8 P301L): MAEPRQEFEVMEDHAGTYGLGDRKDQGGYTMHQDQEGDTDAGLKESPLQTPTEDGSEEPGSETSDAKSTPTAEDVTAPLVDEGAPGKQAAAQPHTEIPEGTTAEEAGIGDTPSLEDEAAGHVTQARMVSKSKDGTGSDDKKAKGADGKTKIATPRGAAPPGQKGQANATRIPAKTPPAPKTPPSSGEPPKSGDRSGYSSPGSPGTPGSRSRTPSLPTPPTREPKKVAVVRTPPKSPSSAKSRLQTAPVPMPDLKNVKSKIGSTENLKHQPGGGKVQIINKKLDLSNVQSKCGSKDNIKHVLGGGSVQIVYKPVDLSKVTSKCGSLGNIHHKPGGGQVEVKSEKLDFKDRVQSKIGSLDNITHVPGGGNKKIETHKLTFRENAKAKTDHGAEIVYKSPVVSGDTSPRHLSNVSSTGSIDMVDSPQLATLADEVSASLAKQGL
T1 sequence (P10636 1-441 isoform P10636-8): as the sequence (P10636 1-441 isoform P10636-8 P301L) above, with L301P counted along it

One may read the IC50 as the concentration that inhibits the measured activity by half. High values mean lower potency, low ones higher potency. By Kd is commonly meant the equilibrium constant for the complex coming apart. Read a high Kd as a looser complex. Consider `CN(C)c1ccc(-c2ccc(-c3nc4ccc(NCCOCCOCCOCCOCCOCCOc5ccc6c(c5)CN(C5CCC(=O)NC5=O)C6=O)cc4s3)cc2)cn1` (centres unmarked) [Compound 160273, 3-[6-[2-[2-[2-[2-[2-[2-[[2-[4-[6-(dimethylamino)pyridin-3-yl]phenyl]-1,3-benzothiazol-6-yl]amino]ethoxy]ethoxy]ethoxy]ethoxy]ethoxy]ethoxy]-3-oxidanylidene-1H-isoindol-2-yl]piperidine-2,6-dione], for which, in assay [1], the IC50 came to 270 nM and the Emax is 59%. Moreover, the inhibition at 1 µM in assay [2] is < 10%. In assay [3], this compound showed a Kd of 470 nM.
Taken in the same sequence, the figures for `CN(C)c1ccc(-c2ccc(-c3nc4ccc(NCCOCCOc5ccc6c(c5)C(=O)N(C5CCC(=O)NC5=O)C6=O)cc4s3)cc2)cn1` (centres unmarked) [Compound 160219, 2-[2,6-bis(oxo)piperidin-3-yl]-5-[2-[2-[[2-[4-[6-(dimethylamino)pyridin-3-yl]phenyl]-1,3-benzothiazol-6-yl]amino]ethoxy]ethoxy]isoindole-1,3-dione] were 150 nM, 69%, < 10% and 110 nM.
Consider `CN(C)c1ccc(-c2ccc(-c3nc4ccc(NCCOCCOCCOCCOCCOCCOc5ccc6c(c5)C(=O)N(C5CCC(=O)NC5=O)C6=O)cc4s3)cc2)cn1` (centres unmarked) [Compound 159985, 2-[2,6-bis(oxo)piperidin-3-yl]-5-[2-[2-[2-[2-[2-[2-[[2-[4-[6-(dimethylamino)-pyridin-3-yl]phenyl]-1,3-benzothiazol-6-yl]amino]ethoxy]ethoxy]ethoxy]ethoxy]ethoxy]-ethoxy]isoindole-1,3-dione], for which, in assay [1], the IC50 was 320 nM and the Emax came out at 71%. In assay [2], the inhibition at 1 µM is < 10%. In addition, binding in assay [3] was characterised by a dissociation constant (Kd) of 100 nM.
On to `CN(C)c1ccc2nc(-c3ccc(-c4ccc(NCCOCCOCCOCCOCCOCCOc5ccc6c(c5)C(=O)N(C5CCC(=O)NC5=O)C6=O)nc4)cc3)sc2c1` (centres unmarked) [Compound 160275, 2-[2,6-bis(oxo)piperidin-3-yl]-5-[2-[2-[2-[2-[2-[2-[[5-[4-[6-(dimethylamino)-1,3-benzothiazol-2-yl]phenyl]pyridin-2-yl]amino]ethoxy]ethoxy]ethoxy]ethoxy]ethoxy]ethoxy]isoindole-1,3-dione], for which, in assay [1], the IC50 was 1290 nM and the Emax came out at 96%. In assay [3], this compound showed a Kd of 230 nM.
With `CN(C)c1ccc2nc(-c3ccc(-c4ccc(NCCOCCOCCOCCOCCOCCOc5ccc6c(c5)CN(C5CCC(=O)NC5=O)C6=O)nc4)cc3)sc2c1` (centres unmarked) [Compound 160383, 3-[6-[2-[2-[2-[2-[2-[2-[[5-[4-[6-(dimethylamino)-1,3-benzothiazol-2-yl]-phenyl]pyridin-2-yl]amino]ethoxy]ethoxy]ethoxy]ethoxy]-ethoxy]ethoxy]-3-oxo-1H-isoindol-2-yl]piperidine-2,6-dione], in assay [1], the IC50 is 270 nM and the Emax was found to be 80%. In addition, in assay [2], the inhibition at 1 µM is < 10%. Besides, in assay [3], the Kd amounted to 550 nM.
Take `CN(C)c1ccc(-c2ccc(-c3cn4cc(OCCOCCOCCOCCOCCOCCOc5ccc6c(c5)C(=O)N(C5CCC(=O)NC5=O)C6=O)ccc4n3)cc2)c(F)n1` (centres unmarked) [Compound 160744, 2-[2,6-bis(oxo)piperidin-3-yl]-5-[2-[2-[2-[2-[2-[2-[2-[4-[6-(dimethyl-amino)-2-fluoro-pyridin-3-yl]phenyl]imidazo[1,2-a]pyridin-6-yl]oxyethoxy]ethoxy]ethoxy]-ethoxy]ethoxy]ethoxy]isoindole-1,3-dione]: in assay [1], the half-maximal inhibitory concentration (IC50) is 5960 nM and the Emax came to 113%. For the same compound, the inhibition at 1 µM in assay [2] was 10 to 20%. For the same compound, the Kd in assay [3] came out at 150 nM.
